According to patent publication EP4603105A1, “PHARMACEUTICAL COMPOSITION CONTAINING CYCLIC COMPOUND HAVING SELECTIVE KRAS INHIBITORY EFFECT AGAINST HRAS AND NRAS” (CHUGAI SEIYAKU KABUSHIKI KAISHA, priority 2022, dated 2024):
Where a SMILES comes first, the peptide text is derived from it. Bridges are numbered along the chain shown (N, C = ends). [ ]: non-standard residue; d: D form. The star is where a group is joined. hPhe(3-Cl-4-CF3) = N[C@@H](CCc1ccc(C(F)(F)F)c(Cl)c1)C(=O)O; NPrPhe(4-CF3) = CCCN[C@@H](Cc1ccc(C(F)(F)F)cc1)C(=O)O; NMeGly(cPent) = CN[C@H](C(=O)O)C1CCCC1; Pro(4,4-F2) = O=C(O)[C@@H]1CC(F)(F)CN1; Hyp = O=C(O)[C@@H]1C[C@@H](O)CN1; NMeD = CN[C@@H](CC(=O)O)C(=O)O; NMeL = CN[C@@H](CC(C)C)C(=O)O; Morpholide = C1CN(*)CCO1; Ac5c = NC1(C(=O)O)CCCC1; Aze = O=C(O)[C@@H]1CCN1; Ac4c = NC1(C(=O)O)CCC1; NPrGly = CCCNCC(=O)O; Sar = CNCC(=O)O

Experiments:
[1] = molecular target: GDP-bound NRAS wild-type protein (Homo sapiens, UniProt P01111); test: Binding to NRAS by surface plasmon resonance (SPR), KD and KD ratio to KRAS; conditions: ratio of KD for GDP-bound NRAS wild-type protein to KD for KRAS
GDP-bound NRAS wild-type protein, sequence (P01111 whole entry): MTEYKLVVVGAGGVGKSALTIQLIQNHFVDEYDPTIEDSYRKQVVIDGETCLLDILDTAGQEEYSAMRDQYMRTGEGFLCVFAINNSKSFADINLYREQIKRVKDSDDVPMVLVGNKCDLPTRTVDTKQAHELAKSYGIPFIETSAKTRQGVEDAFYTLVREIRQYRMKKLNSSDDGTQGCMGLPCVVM
Outline: (§1)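 Affinity is measured by surface plasmon resonance at 30°C against captured, GDP-loaded RAS carrying a biotinylated Avi tag. Compounds are titrated by single-cycle kinetics, and KD comes from a 1:1 fit.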

HRAS wild-type protein = HRAS wild-type protein (Homo sapiens, UniProt P01112); test: Binding to HRAS by surface plasmon resonance (SPR), KD and KD ratio to KRAS; conditions: ratio of KD for HRAS wild-type protein to KD for KRAS
HRAS wild-type protein, sequence (P01112 whole entry): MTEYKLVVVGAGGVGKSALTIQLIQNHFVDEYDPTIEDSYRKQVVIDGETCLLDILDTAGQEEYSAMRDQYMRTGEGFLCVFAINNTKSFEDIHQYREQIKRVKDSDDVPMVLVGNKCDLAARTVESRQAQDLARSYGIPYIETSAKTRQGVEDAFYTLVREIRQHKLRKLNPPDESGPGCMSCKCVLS
Outline: as §1

[2] = test system: human lung cancer strain NCI-H441; type: cell-based
Outline: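 Readout: […] after the ATP-based reagent. Compound: serial dilutions in dimethyl sulfoxide.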

Compound	IC50 [2] [nM]	NRAS /KRAS [1]	HRAS /KRAS (HRAS wild-type protein)
CCCN1C(=O)CN(C)C(=O)[C@@H]2CCN2C(=O)[C@H]([C@@H](C)CC)NC(=O)[C@H](CC(C)C)N(C)C(=O)C[C@@H](C(=O)N2CCOCC2)N(C)C(=O)[C@H](C2CCCC2)N(C)C(=O)C2(CCCC2)NC(=O)CN(C)C(=O)[C@H](CCc2ccc(C(F)(F)F)c(Cl)c2)NC(=O)CN(C)C(=O)[C@@H]1Cc1ccc(C(F)(F)F)cc1 [PP0314] ([NMeL]I[Aze][Sar][NPrPhe(4-CF3)][Sar][hPhe(3-Cl-4-CF3)][Sar][Ac5c][NMeGly(cPent)][NMeD]-Morpholide; lactam N-11)	58.1	B (a compound having 3 or more and less than 10 is denoted as B)	C (A compound having a KD ratio of 0.1 or more and less than 3 is denoted as C)
CCCN1CC(=O)NC2(CCCC2)C(=O)N(C)[C@@H](C2CCCC2)C(=O)N(C)[C@H](C(=O)N2CCOCC2)CC(=O)N(C)[C@@H](CC(C)C)C(=O)N[C@@H]([C@@H](C)CC)C(=O)N2CC[C@H]2C(=O)N(C)CC(=O)N(CCC)[C@@H](Cc2ccc(C(F)(F)F)cc2)C(=O)N(C)CC(=O)N[C@@H](CCc2ccc(C(F)(F)F)c(Cl)c2)C1=O [PP0315] ([NMeL]I[Aze][Sar][NPrPhe(4-CF3)][Sar][hPhe(3-Cl-4-CF3)][NPrGly][Ac5c][NMeGly(cPent)][NMeD]-Morpholide; lactam N-11)	148	B (a compound having 3 or more and less than 10 is denoted as B)	B (a compound having 3 or more and less than 10 is denoted as B)
CCCN1C(=O)CN(C)C(=O)CN(C)C(=O)[C@H]([C@@H](C)CC)NC(=O)[C@H](CC(C)C)N(C)C(=O)C[C@@H](C(=O)N2CCOCC2)NC(=O)[C@H](C2CCCC2)N(C)C(=O)C2(CCC2)NC(=O)[C@@H]2CCCN2C(=O)[C@H](CCc2ccc(C(F)(F)F)c(Cl)c2)NC(=O)CN(C)C(=O)[C@@H]1Cc1ccc(C(F)(F)F)cc1 [PP0320] ([NMeL]I[Sar][Sar][NPrPhe(4-CF3)][Sar][hPhe(3-Cl-4-CF3)]P[Ac4c][NMeGly(cPent)]D-Morpholide; lactam N-11)	92.3	B (a compound having 3 or more and less than 10 is denoted as B)	B (a compound having 3 or more and less than 10 is denoted as B)
CCCN1C(=O)CN(C)C(=O)CN(C)C(=O)[C@H]([C@@H](C)CC)NC(=O)[C@H](CC(C)C)N(C)C(=O)C[C@@H](C(=O)N2CCOCC2)NC(=O)[C@H](C2CCCC2)N(C)C(=O)C2(CCC2)NC(=O)[C@@H]2CC(F)(F)CN2C(=O)[C@H](CCc2ccc(C(F)(F)F)c(Cl)c2)NC(=O)CN(C)C(=O)[C@@H]1Cc1ccc(C(F)(F)F)cc1 [PP0322] ([NMeL]I[Sar][Sar][NPrPhe(4-CF3)][Sar][hPhe(3-Cl-4-CF3)][Pro(4,4-F2)][Ac4c][NMeGly(cPent)]D-Morpholide; lactam N-11)	74.2	B (a compound having 3 or more and less than 10 is denoted as B)	C (A compound having a KD ratio of 0.1 or more and less than 3 is denoted as C)
CCCN1C(=O)CN(C)C(=O)CN(C)C(=O)[C@H]([C@@H](C)CC)NC(=O)[C@H](CC(C)C)N(C)C(=O)C[C@@H](C(=O)N2CCOCC2)NC(=O)[C@H](C2CCCC2)N(C)C(=O)C2(CCCC2)NC(=O)[C@@H]2C[C@@H](OCC)CN2C(=O)[C@H](CCc2ccc(C(F)(F)F)c(Cl)c2)NC(=O)CN(C)C(=O)[C@@H]1Cc1ccc(C(F)(F)F)cc1 [PP0323] ([NMeL]I[Sar][Sar][NPrPhe(4-CF3)][Sar][hPhe(3-Cl-4-CF3)][Hyp](Et)[Ac5c][NMeGly(cPent)]D-Morpholide; lactam N-11)	64	B (a compound having 3 or more and less than 10 is denoted as B)	B (a compound having 3 or more and less than 10 is denoted as B)
CCCN1C(=O)CN(C)C(=O)CNC(=O)[C@H]([C@@H](C)CC)NC(=O)[C@H](CC(C)C)N(C)C(=O)C[C@@H](C(=O)N2CCOCC2)NC(=O)[C@H](C2CCCC2)N(C)C(=O)C2(CCCC2)NC(=O)[C@@H]2CCCN2C(=O)[C@H](CCc2ccc(C(F)(F)F)c(Cl)c2)NC(=O)CN(C)C(=O)[C@@H]1Cc1ccc(C(F)(F)F)cc1 [PP0325] ([NMeL]IG[Sar][NPrPhe(4-CF3)][Sar][hPhe(3-Cl-4-CF3)]P[Ac5c][NMeGly(cPent)]D-Morpholide; lactam N-11)	163	B (a compound having 3 or more and less than 10 is denoted as B)	B (a compound having 3 or more and less than 10 is denoted as B)
CCCN1C(=O)CN(C)C(=O)CNC(=O)[C@H]([C@@H](C)CC)NC(=O)[C@H](CC(C)C)N(C)C(=O)C[C@@H](C(=O)N2CCOCC2)NC(=O)[C@H](C2CCCC2)N(C)C(=O)C2(CCC2)NC(=O)[C@@H]2CCCN2C(=O)[C@H](CCc2ccc(C(F)(F)F)c(Cl)c2)NC(=O)CN(C)C(=O)[C@@H]1Cc1ccc(C(F)(F)F)cc1 [PP0326] ([NMeL]IG[Sar][NPrPhe(4-CF3)][Sar][hPhe(3-Cl-4-CF3)]P[Ac4c][NMeGly(cPent)]D-Morpholide; lactam N-11)	172	B (a compound having 3 or more and less than 10 is denoted as B)	B (a compound having 3 or more and less than 10 is denoted as B)
CCCN1C(=O)CN(C)C(=O)CNC(=O)[C@H]([C@@H](C)CC)NC(=O)[C@H](CC(C)C)N(C)C(=O)C[C@@H](C(=O)N2CCOCC2)NC(=O)[C@H](C2CCCC2)N(C)C(=O)C2(CCCC2)NC(=O)[C@@H]2CC(F)(F)CN2C(=O)[C@H](CCc2ccc(C(F)(F)F)c(Cl)c2)NC(=O)CN(C)C(=O)[C@@H]1Cc1ccc(C(F)(F)F)cc1 [PP0327] ([NMeL]IG[Sar][NPrPhe(4-CF3)][Sar][hPhe(3-Cl-4-CF3)][Pro(4,4-F2)][Ac5c][NMeGly(cPent)]D-Morpholide; lactam N-11)	162	B (a compound having 3 or more and less than 10 is denoted as B)	B (a compound having 3 or more and less than 10 is denoted as B)
CCCN1C(=O)CN(C)C(=O)CNC(=O)[C@H]([C@@H](C)CC)NC(=O)[C@H](CC(C)C)N(C)C(=O)C[C@@H](C(=O)N2CCOCC2)NC(=O)[C@H](C2CCCC2)N(C)C(=O)C2(CCC2)NC(=O)[C@@H]2CC(F)(F)CN2C(=O)[C@H](CCc2ccc(C(F)(F)F)c(Cl)c2)NC(=O)CN(C)C(=O)[C@@H]1Cc1ccc(C(F)(F)F)cc1 [PP0328] ([NMeL]IG[Sar][NPrPhe(4-CF3)][Sar][hPhe(3-Cl-4-CF3)][Pro(4,4-F2)][Ac4c][NMeGly(cPent)]D-Morpholide; lactam N-11)	243	B (a compound having 3 or more and less than 10 is denoted as B)	B (a compound having 3 or more and less than 10 is denoted as B)

These reach a lower IC50 [2]. Values come first.

IC50 [2] [nM]	Compound	NRAS /KRAS [1]	HRAS /KRAS (HRAS wild-type protein)
2.8	CC[C@H](C)[C@@H]1NC(=O)[C@H](CC(C)C)N(C)C(=O)C[C@@H](C(=O)N2CCOCC2)N(C)C(=O)[C@H](C2CCCC2)N(C)C(=O)C2(CCCC2)NC(=O)[C@@H]2CCCN2C(=O)[C@H](CCc2ccc(C(F)(F)F)c(Cl)c2)NC(=O)CN(C)C(=O)[C@H](Cc2ccc(C)cc2)N2CCCC[C@@H](C2=O)N(C)C(=O)CN(C)C1=O [PP0316]	C (A compound having a KD ratio of 0.1 or more and less than 3 is denoted as C)	B (a compound having 3 or more and less than 10 is denoted as B)
32.2	CC[C@H](C)[C@@H]1NC(=O)[C@H](CC(C)C)N(C)C(=O)C[C@@H](C(=O)N2CCOCC2)N(C)C(=O)[C@H](C2CCCC2)N(C)C(=O)C2(CCCC2)NC(=O)[C@@H]2CCCN2C(=O)[C@H](CCc2ccc(C(F)(F)F)c(Cl)c2)NC(=O)CN(C)C(=O)[C@H](Cc2ccc(C)cc2)N2CCCCC[C@@H](C2=O)N(C)C(=O)CN(C)C1=O [PP0317]	B (a compound having 3 or more and less than 10 is denoted as B)	B (a compound having 3 or more and less than 10 is denoted as B)
2.3	CC[C@H](C)[C@@H]1NC(=O)[C@H](CC(C)C)N(C)C(=O)C[C@@H](C(=O)N2CCOCC2)N(C)C(=O)[C@H](C2CCCC2)N(C)C(=O)C2(CCCC2)NC(=O)[C@@H]2CCCN2C(=O)[C@H](CCc2ccc(C(F)(F)F)c(Cl)c2)NC(=O)CN(C)C(=O)[C@H](Cc2ccc(C(F)(F)F)cc2)N2CCCC[C@@H](C2=O)N(C)C(=O)CN(C)C1=O [PP0318]	B (a compound having 3 or more and less than 10 is denoted as B)	B (a compound having 3 or more and less than 10 is denoted as B)
55.7	CCCN1C(=O)CN(C)C(=O)CN(C)C(=O)[C@H]([C@@H](C)CC)NC(=O)[C@H](CC(C)C)N(C)C(=O)C[C@@H](C(=O)N2CCOCC2)NC(=O)[C@H](C2CCCC2)N(C)C(=O)C2(CCCC2)NC(=O)[C@@H]2CC(F)(F)CN2C(=O)[C@H](CCc2ccc(C(F)(F)F)c(Cl)c2)NC(=O)CN(C)C(=O)[C@@H]1Cc1ccc(C(F)(F)F)cc1 [PP0321] ([NMeL]I[Sar][Sar][NPrPhe(4-CF3)][Sar][hPhe(3-Cl-4-CF3)][Pro(4,4-F2)][Ac5c][NMeGly(cPent)]D-Morpholide; lactam N-11)	B (a compound having 3 or more and less than 10 is denoted as B)	B (a compound having 3 or more and less than 10 is denoted as B)
38.5	CCCN1C(=O)CN(C)C(=O)CN(C)C(=O)[C@H]([C@@H](C)CC)NC(=O)[C@H](CC(C)C)N(C)C(=O)C[C@@H](C(=O)N2CCOCC2)NC(=O)[C@H](C2CCCC2)N(C)C(=O)C2(CCC2)NC(=O)[C@@H]2C[C@@H](OCC)CN2C(=O)[C@H](CCc2ccc(C(F)(F)F)c(Cl)c2)NC(=O)CN(C)C(=O)[C@@H]1Cc1ccc(C(F)(F)F)cc1 [PP0324] ([NMeL]I[Sar][Sar][NPrPhe(4-CF3)][Sar][hPhe(3-Cl-4-CF3)][Hyp](Et)[Ac4c][NMeGly(cPent)]D-Morpholide; lactam N-11)	B (a compound having 3 or more and less than 10 is denoted as B)	B (a compound having 3 or more and less than 10 is denoted as B)
